This note sets out measurements from patent US6951855B2, “Benzoxazinone derivatives for use in the treatment of angiogenesis” (AstraZeneca AB, priority 2001, dated 2005).

Consider `O=C1COc2cc(SCc3ccc(O)cc3)ccc2N1` [Example 13, 7-(4-Hydroxybenzylsulfanyl)-2H-1,4-benzoxazin-3(4H)-one], for which the melting point is 207 to 209 °C.

The compound `O=C1COc2cc(SCc3ccccc3)ccc2N1` [Example 9, 7-Benzylsulfanyl-2H-1,4-benzoxazin-3(4H)-one] showed a melting point of 154 to 155 °C.

In the case of `O=C1COc2cc(Nc3ccc(O)cc3)ccc2N1` [Example 15, 7-(4-Hydroxyanilino)-2H-1,4-benzoxazin-3(4H)-one], the melting point was 270 to 275 °C.

Consider `O=C1COc2cc(Sc3ccc(O)cc3)ccc2N1` [Example 6, 7-[(4-Hydroxyphenyl)sulfanyl]-2H-1,4-benzoxazin-3(4H)-one], for which the melting point lay in the range of 224 to 225 °C.

The compound `O=C1COc2cc(Sc3ccc(O)c(O)c3)ccc2N1` [Example 8, 7-[(3,4-Dihydroxyphenyl)sulfanyl]-2H-1,4-benzoxazin-3(4H)-one] came in with a melting point of 236 to 238 °C.

With `CC(=O)Nc1ccc(Oc2ccc3c(c2)OCC(=O)N3)cc1` [Example 19, 7-(4-Acetylaminophenoxy)-2H-1,4-benzoxazin-3(4H)-one], the melting point was in the range of 230 to 232 °C.

The compound `O=C1COc2cc(Oc3ccc(O)cc3)ccc2N1` [Example 2, 7-(4-Hydroxyphenoxy)-2H-1,4-benzoxazin-3(4H)-one] showed a melting point of 250 to 251 °C.

As for `COc1ccc(Oc2ccc3c(c2)OCC(=O)N3)cc1` [Example 1, 7-(4-Methoxyphenoxy)-2H-1,4-benzoxazin-3(4H)-one], the melting point was in the range of 163 to 164 °C.

With `COc1ccc(Sc2ccc3c(c2)OCC(=O)N3)cc1OC` [Example 7, 7-[(3,4-Dimethoxyphenyl)sulfanyl]-2H-1,4-benzoxazin-3(4H)-one], the melting point fell in the range of 170 to 171 °C.

On to `COc1ccc(Nc2ccc3c(c2)OCC(=O)N3)cc1` [Example 14, 7-(4-Methoxyanilino)-2H-1,4-benzoxazin-3(4H)-one], for which the melting point is 174 to 175 °C.

With `Nc1ccccc1Sc1ccc2c(c1)OCC(=O)N2` [Example 4, 7-[(2-Aminophenyl)sulfanyl]-2H-1,4-benzoxazin-3(4H)-one], the melting point was in the range of 204 to 205 °C.

The compound `Nc1cccc(Sc2ccc3c(c2)OCC(=O)N3)c1` [Example 5, 7-[(3-Aminophenyl)sulfanyl]-2H-1,4-benzoxazine-3(4H)-one] gave a melting point of 181 to 182 °C.

For `Nc1ccc(Sc2ccc3c(c2)OCC(=O)N3)cc1` [Example 3, 7-[(4-Aminophenyl)sulfanyl]-2H-1,4-benzoxazin-3(4H)-one], the melting point lay within 232 to 234 °C.

In turn, `Nc1cccc(Oc2ccc3c(c2)OCC(=O)N3)c1` [Example 17, 7-(3-Aminophenoxy)-2H-1,4-benzoxazin-3(4H)-one] returned a melting point of 209 to 210 °C.

With `Nc1ccccc1Oc1ccc2c(c1)OCC(=O)N2` [Example 18, 7-(2-Aminophenoxy)-2H-1,4-benzoxazin-3(4H)-one], the melting point fell in the range of 149 to 150 °C.
